Patent US6670363B1, “Azole compounds as therapeutic agents for fungal infections” (Ranbaxy Laboratories Limited, priority 2000, dated 2003)
Values after ≈ are worked out from the molar mass of the structure shown.

Legend:
[1] = target: lanosterol 14α—demethylase; conditions: target enzyme in the fungus; read-out: IC50 against lanosterol 14α-demethylase; cited from earlier work
[2] = system: isolates of Aspergillus species; conditions: cited from earlier work
Cryptococcus neoformans = assay: In vitro MIC, NCCLS M27A, Cryptococcus neoformans; assay type: cell-based; parameters: MIC, C. neoformans I: unit not given beside the values; MIC, C. neoformans M 106: unit not given here; conditions: for MIC, C. neoformans I: C. neoformans strain I; for MIC, C. neoformans M 106: C. neoformans strain M 106
Histoplasma capsulatum = assay type: cell-based
Candida = assay: In vitro MIC, NCCLS M27A, Candida species; assay type: cell-based; parameters: MIC, Candida albicans 1.549 / MIC, Candida albicans Y-01-19 / MIC, C. krusei 766-1 / MIC, C. krusei Q. C / MIC, Candida tropicalis ATCC / MIC, C. glabrata 90030: unit not given beside the values; MIC, Candida albicans A 26 / MIC, C. parapsilosis Q. C.: unit not given here; conditions: for MIC, C. glabrata 90030: C. glabrata strain 90030; for MIC, C. krusei 766-1: C. krusei strain 766-1; for MIC, C. krusei Q. C: C. krusei strain Q. C; for MIC, C. parapsilosis Q. C.: C. parapsilosis strain Q. C.; for MIC, Candida albicans 1.549: Candida albicans strain 1.549; for MIC, Candida albicans A 26: Candida albicans strain A 26; for MIC, Candida albicans Y-01-19: Candida albicans strain Y-01-19
A. fumigatus s 1008 = assay: In vitro MIC, NCCLS M38P broth method (RPMI 1640/MOPS pH7), Aspergillus fumigatus; assay type: cell-based; conditions: A. fumigatus strain 1008

| Structure (SMILES) | IC50 [1] | minimum inhibitory concentration (MIC) [2] | MIC, C. neoformans I (Cryptococcus neoformans) | MIC, C. neoformans M 106 (Cryptococcus neoformans) | melting point | MIC, H. capsulatum (Histoplasma capsulatum) | MIC, C. glabrata 90030 (Candida) | MIC, C. krusei 766-1 (Candida) | MIC, C. krusei Q. C (Candida) | MIC, C. parapsilosis Q. C. (Candida) | MIC, Candida albicans 1.549 (Candida) | MIC, Candida albicans A 26 (Candida) | MIC, Candida albicans Y-01-19 (Candida) | MIC, Candida tropicalis ATCC (Candida) | MIC, A. fumigatus 1008 (A. fumigatus s 1008) |
| --- | --- | --- | --- | --- | --- | --- | --- | --- | --- | --- | --- | --- | --- | --- | --- |
| OC(Cn1cncn1)(Cn1cncn1)c1ccc(F)cc1F [fluconazole] | 4.8 µM | 400 µg/mL (≈ 1310 µM) | – | – | – | – | – | – | – | – | – | – | – | – | – |
| O=c1n(-c2ccc(N3CCN(c4cc(Cl)cc(Cl)c4)CC3)cc2)cnn1CC(O)(Cn1cncn1)c1ccc(F)cc1F (stereo not shown) [Compound 61, 2-[2-(2,4-Difluorophenyl)-2-hydroxy-3-(1H-1,2,4-triazol-1-yl)propyl]-4-{4-[4-(3,5-dichlorophenyl)-1-piperazinyl]phenyl}-3-(2H,4H)-1,2,4-triazolone] | – | – | <0.03 | <0.03 | 222 to 225 °C | < 0.03 µg/mL | 0.50 | 0.50 | 0.25 | <0.03 | 0.25 | <0.03 | 0.12 | <0.03 | >16 |
| O=c1n(-c2ccc(N3CCN(c4ccc(Cl)cc4)CC3)cc2)cnn1CC(O)(Cn1cncn1)c1ccc(F)cc1F (stereo not shown) [Compound 47, 2-[2-(2,4-Difluorophenyl)-2-hydroxy-3-(1H-1,2,4-triazol-1-yl)propyl]-4-{4-[4-(4-chlorophenyl)-1-piperazinyl]phenyl}-3-(2H,4H)-1,2,4-triazolone] | – | – | <0.02 | 0.40 | 207 to 208 °C | 0.05 µg/mL (≈ 0.0843 µM) | 3.12 | 1.56 | 1.56 | <0.02 | 0.20 | <0.02 | 0.20 | <0.02 | 3.12 |
| O=c1n(-c2ccc(N3CCN(c4ccccc4F)CC3)cc2)cnn1CC(O)(Cn1cncn1)c1ccc(F)cc1F (stereo not shown) [Compound 62, 2-[2-(2,4-Difluorophenyl)-2-hydroxy-3-(1H-1,2,4-triazol-1-yl)propyl]-4-{4-[4-(2-fluorophenyl)-1-piperazinyl]phenyl}-3-(2H,4H)-1,2,4-triazolone] | – | – | <0.03 | 0.12 | 74 to 76 °C | < 0.03 µg/mL | 1.00 | 2.00 | 0.50 | <0.03 | 4.00 | <0.03 | 0.50 | <0.03 | 16.00 |
| O=c1n(-c2ccc(N3CCN(c4ccc(F)cc4)CC3)cc2)cnn1CC(O)(Cn1cncn1)c1ccc(F)cc1F (stereo not shown) [Compound 43, 2-[2-(2,4-Difluorophenyl)-2-hydroxy-3-(1H-1,2,4-triazol-1-yl)propyl]-4-{4-[4-(4-fluorophenyl)-1-piperazinyl]phenyl}-3-(2H,4H)-1,2,4-triazolone] | – | – | 0.05 | 0.05 | 173 to 177 °C | < 0.02 µg/mL | 0.40 | 1.56 | 0.20 | <0.02 | <0.02 | <0.02 | 0.05 | 12.50 | >12.5 |
| COc1ccc(N2CCN(c3ccc(-n4cnn(CC(O)(Cn5cncn5)c5ccc(F)cc5F)c4=O)cc3)CC2)cc1 (stereo not shown) [Compound 41, 2-[2-(2,4-Difluorophenyl)-2-hydroxy-3-(1H-1,2,4-triazol-1-yl)propyl]-4-{4-[4-(4-methoxyphenyl)-1-piperazinyl]phenyl}-3-(2H,4H)-1,2,4-triazolone] | – | – | 0.10 | 0.40 | 183 to 186 °C | < 0.02 µg/mL | 0.80 | 1.56 | 0.40 | <0.02 | 0.05 | <0.02 | 0.10 | 3.12 | 6.25 |
